# Calls of active or inactive are those of the source.
# Assays:
# [1] = molecular target: Mitogen-activated protein kinase 10 (Homo sapiens, UniProt P53779); assay: Dose response biochemical screening assay for inhibitors of c-Jun N-Terminal Kinase 3 (JNK3). [Related pubchem assays: 746 ]
# [2] = molecular target: Nuclear receptor subfamily 5 group A member 2 (Homo sapiens, UniProt O00482); assay type: functional, cell-based;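 note: HEK293T cells transfected with LRH-1 and a StAR promoter luciferase reporter; potency for inhibitors that lower LRH-1 driven reporter light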
# Steroidogenic factor 1 = Steroidogenic factor 1 (Homo sapiens, UniProt Q13285); assay: Counterscreen for inverse agonists of the liver receptor homolog-1 (LRH-1; NR5A2): Luminescence-based cell-based high throughput dose response assay to identify inverse agonists of the Steroidogenic Factor 1 Nuclear Receptor (SF1; NR5A1).; assay type: functional
# [3] = nonselective StAR promoter luciferase inhibitors – cell-based, luminescence, luciferase reporter, counter-screen for LRH-1 inverse agonist project, dose response (AID 651969); assay type: functional
# [4] = molecular target: T1, RNA-binding protein pos-1 (Caenorhabditis elegans, UniProt G5EF15); assay: disruptors of C. elegans POS-1 RNA interaction – biochemical, fluorescence polarization, dose response (AID 1964);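 note: purified POS-1 fused to maltose binding protein made in E. coli; potency of compounds blocking POS-1 binding to fluorescent RNA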
# T1 sequence (G5EF15 whole entry): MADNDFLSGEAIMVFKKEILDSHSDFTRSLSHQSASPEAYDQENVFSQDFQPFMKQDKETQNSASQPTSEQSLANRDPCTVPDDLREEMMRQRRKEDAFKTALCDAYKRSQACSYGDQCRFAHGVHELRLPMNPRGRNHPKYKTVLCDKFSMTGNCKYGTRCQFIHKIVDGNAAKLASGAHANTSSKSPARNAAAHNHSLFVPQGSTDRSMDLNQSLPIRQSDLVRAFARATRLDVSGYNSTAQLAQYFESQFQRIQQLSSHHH
# [5] = molecular target: T2, Zinc finger protein mex-5 (Caenorhabditis elegans, UniProt Q9XUB2); assay: potency of MEX-5 RNA-binding blockers – biochemical, C. elegans, fluorescence polarization, dose response (AID 1960)
# T2 sequence (Q9XUB2 whole entry): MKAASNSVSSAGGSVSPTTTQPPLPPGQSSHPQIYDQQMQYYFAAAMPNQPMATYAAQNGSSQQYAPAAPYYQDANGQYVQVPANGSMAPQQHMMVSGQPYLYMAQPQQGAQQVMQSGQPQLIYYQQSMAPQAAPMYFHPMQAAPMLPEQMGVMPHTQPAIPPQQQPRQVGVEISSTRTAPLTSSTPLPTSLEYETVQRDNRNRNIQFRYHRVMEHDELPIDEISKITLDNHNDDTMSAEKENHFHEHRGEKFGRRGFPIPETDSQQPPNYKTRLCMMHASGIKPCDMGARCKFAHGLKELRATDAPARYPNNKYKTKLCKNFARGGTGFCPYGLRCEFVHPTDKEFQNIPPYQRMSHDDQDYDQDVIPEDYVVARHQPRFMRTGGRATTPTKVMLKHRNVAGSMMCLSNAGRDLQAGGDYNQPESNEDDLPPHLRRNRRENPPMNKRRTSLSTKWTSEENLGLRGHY
# [6] = molecular target: Heat shock protein HSP 90-alpha (Homo sapiens, UniProt P07900); assay: Luminescence-based dose response biochemical high throughput screening assay for inhibitors of the Heat Shock Protein 90 (HSP90). [Related pubchem assays: 1831 (Summary AID.), 1846 (Confirmation screen.), 1789 (Primary screen.)]
# [7] = CellTiter-Glo luminescence survival assay, SW480 colon tumor line, concentration-response curve, half-maximal inhibitory concentration (AID 1117338); assay type: functional
# [8] = RKO cell viability reduction, dose response, CellTiter-Glo luminescence (AID 1117322); assay type: functional
# [9] = cytotoxicity toward HCT116 cells – cell-based, CellTiter-Glo luminescence, IC50, dose response (AID 1117332); assay type: functional; settings: HCT-116
# [10] = SNU-C1 cell viability reduction, dose response, CellTiter-Glo luminescence (AID 1117323); assay type: functional, cell-based
# [11] = cytotoxicity toward Colo320 cells – cell-based, CellTiter-Glo luminescence, IC50, dose response (AID 1117334); assay type: functional; settings: COLO 320
# [12] = cytotoxicity toward HT-29 cells – cell-based, CellTiter-Glo luminescence, IC50, dose response (AID 1117330); assay type: functional
# [13] = Reduced DLD-1 viability, concentration-response, CellTiter-Glo luminescence (AID 1117352); assay type: functional
# [14] = HCT116 cell viability decrease, GSK3B pretreatment – CellTiter-Glo, IC50, dose response (AID 1117339); assay type: functional; settings: HCT-116
# [15] = molecular target: Sphingosine 1-phosphate receptor 2 (Homo sapiens, UniProt O95136); assay: Dose Response Cell Based Assay for Agonists of the S1P2 Receptor. [Related pubchem assays: 729, 736, 843 ]; assay type: functional
# [16] = molecular target: Glyceraldehyde-3-phosphate dehydrogenase (Homo sapiens, UniProt P04406)
# Bcl-2-related protein A1 [17] = molecular target: T3, Bcl-2-related protein A1 (Mus musculus, UniProt Q07440); assay: small-molecule antagonists of Bfl-1/BH3 interaction – biochemical, TR-FRET, mouse Bfl-1, confirmation (AID 621);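 note: TR-FRET binding of GST-Bfl-1 to FITC-labelled Bid peptide via terbium antibody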
# T3 sequence (Q07440 whole entry): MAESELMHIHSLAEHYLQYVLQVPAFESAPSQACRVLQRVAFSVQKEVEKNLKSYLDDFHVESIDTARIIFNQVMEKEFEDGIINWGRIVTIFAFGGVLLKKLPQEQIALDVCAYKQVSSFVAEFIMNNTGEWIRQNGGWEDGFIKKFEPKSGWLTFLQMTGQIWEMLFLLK
# Bcl-2-related protein A1 [18] = molecular target: T3, Bcl-2-related protein A1; assay: Bfl-1 binding inhibitors, SAR follow-up, biochemical, fluorescence polarization (AID 1070)
# [19] = molecular target: T4, Calpain-2 catalytic subunit (Sus scrofa, UniProt P43367); assay: m-calpain protease blockers, concentration series – biochemical, fluorogenic peptide substrate, dose response (AID 1420); assay type: functional
# T4 sequence (P43367 whole entry): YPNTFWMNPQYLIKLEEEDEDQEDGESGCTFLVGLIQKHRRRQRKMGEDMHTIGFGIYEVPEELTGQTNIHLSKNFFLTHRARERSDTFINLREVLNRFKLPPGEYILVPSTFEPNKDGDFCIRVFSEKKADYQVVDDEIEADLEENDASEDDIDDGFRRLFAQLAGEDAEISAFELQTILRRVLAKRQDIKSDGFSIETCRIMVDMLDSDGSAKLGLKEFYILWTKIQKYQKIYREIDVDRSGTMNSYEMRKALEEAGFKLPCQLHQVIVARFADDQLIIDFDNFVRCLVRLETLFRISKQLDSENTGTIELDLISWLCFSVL
# [20] = molecular target: Bifunctional protein GlmU (Mycobacterium tuberculosis, UniProt P9WMN3); assay: Inhibitors of Mycobacterial Glucosamine-1-phosphate acetyl transferase (GlmU). Secondary screen.; design: species or system Mycobacterium tuberculosis H37Rv
# Chain of Bifunctional protein GlmU (P9WMN3 whole entry): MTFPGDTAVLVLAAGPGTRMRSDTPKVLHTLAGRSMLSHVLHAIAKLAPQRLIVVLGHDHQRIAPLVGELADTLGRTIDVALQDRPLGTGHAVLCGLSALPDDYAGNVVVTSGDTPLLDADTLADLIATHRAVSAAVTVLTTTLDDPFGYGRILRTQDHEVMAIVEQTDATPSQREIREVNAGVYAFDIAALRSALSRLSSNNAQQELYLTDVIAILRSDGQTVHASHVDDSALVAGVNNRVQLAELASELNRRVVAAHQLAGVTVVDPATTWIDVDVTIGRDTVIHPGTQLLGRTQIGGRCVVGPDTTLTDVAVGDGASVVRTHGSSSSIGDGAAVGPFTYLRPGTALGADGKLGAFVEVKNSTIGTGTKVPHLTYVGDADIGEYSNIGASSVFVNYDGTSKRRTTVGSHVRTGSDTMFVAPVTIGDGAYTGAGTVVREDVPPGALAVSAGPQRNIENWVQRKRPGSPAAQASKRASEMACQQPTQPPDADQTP
# Chain of Sphingosine 1-phosphate receptor 2 (O95136 whole entry): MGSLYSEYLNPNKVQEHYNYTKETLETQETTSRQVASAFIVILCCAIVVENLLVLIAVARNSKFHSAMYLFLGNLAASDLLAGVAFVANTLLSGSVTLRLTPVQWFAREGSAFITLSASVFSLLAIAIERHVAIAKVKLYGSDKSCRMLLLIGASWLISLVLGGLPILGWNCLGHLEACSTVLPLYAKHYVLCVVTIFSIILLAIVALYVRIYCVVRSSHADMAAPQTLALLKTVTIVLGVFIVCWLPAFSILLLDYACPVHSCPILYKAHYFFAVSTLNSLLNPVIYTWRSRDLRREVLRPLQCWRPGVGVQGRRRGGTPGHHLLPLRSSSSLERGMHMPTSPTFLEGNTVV
# Chain of Steroidogenic factor 1 (Q13285 whole entry): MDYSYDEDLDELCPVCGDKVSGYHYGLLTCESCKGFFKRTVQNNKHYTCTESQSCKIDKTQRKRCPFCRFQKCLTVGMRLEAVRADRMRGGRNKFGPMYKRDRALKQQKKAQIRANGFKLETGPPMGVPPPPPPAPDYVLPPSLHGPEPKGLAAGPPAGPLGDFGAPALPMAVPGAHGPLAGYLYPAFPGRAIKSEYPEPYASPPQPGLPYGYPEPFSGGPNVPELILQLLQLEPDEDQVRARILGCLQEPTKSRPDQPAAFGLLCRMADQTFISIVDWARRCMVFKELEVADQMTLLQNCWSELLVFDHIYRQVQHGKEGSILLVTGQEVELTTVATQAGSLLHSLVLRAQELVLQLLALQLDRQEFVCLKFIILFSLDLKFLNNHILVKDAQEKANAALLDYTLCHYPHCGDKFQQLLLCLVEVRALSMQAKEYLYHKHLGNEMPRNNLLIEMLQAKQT
# Chain of Nuclear receptor subfamily 5 group A member 2 (O00482 whole entry): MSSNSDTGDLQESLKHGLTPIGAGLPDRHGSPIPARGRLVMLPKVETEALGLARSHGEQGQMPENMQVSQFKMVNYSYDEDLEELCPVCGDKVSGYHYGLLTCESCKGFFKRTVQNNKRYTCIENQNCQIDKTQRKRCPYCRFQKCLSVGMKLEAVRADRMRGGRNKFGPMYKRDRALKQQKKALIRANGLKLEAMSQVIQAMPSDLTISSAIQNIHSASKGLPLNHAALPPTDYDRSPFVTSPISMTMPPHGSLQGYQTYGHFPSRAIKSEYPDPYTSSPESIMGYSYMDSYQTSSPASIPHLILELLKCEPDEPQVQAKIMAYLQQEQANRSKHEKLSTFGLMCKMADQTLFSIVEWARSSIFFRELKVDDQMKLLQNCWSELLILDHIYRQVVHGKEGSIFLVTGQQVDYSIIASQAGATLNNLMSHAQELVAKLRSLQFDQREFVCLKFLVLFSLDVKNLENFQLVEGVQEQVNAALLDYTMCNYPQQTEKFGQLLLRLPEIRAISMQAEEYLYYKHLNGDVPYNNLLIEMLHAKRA
# Chain of Glyceraldehyde-3-phosphate dehydrogenase (P04406 whole entry): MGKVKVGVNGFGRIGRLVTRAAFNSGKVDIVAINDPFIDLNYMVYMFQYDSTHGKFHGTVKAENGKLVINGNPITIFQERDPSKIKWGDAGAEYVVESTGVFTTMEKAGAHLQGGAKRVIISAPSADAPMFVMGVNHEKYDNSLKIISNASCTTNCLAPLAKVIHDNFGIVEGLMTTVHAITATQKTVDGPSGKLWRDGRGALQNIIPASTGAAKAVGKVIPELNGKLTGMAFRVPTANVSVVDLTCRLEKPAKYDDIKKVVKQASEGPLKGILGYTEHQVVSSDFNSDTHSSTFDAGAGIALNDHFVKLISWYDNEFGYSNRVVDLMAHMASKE
# Chain of Mitogen-activated protein kinase 10 (P53779 whole entry): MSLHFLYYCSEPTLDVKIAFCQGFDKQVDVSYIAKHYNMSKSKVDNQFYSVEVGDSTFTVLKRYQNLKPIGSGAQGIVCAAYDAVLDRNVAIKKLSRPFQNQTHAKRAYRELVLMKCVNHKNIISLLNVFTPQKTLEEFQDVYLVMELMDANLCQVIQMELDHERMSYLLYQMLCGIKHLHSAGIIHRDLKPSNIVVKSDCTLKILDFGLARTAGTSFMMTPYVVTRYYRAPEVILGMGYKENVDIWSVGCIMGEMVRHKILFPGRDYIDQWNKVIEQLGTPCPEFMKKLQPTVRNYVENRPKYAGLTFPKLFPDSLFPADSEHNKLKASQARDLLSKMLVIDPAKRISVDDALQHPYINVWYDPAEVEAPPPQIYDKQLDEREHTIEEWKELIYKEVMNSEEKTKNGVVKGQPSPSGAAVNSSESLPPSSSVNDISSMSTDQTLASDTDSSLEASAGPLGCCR
smiles,measurement,setting,value
CCn1c(SCC(=O)Nc2ccc(Cl)cc2)nnc1C1CC1,IC50,[1],> 93.1 µM (not active)
same,IC50,[2],35.9 µM (inactive)
same,IC50,Steroidogenic factor 1,6.13 µM (active)
same,IC50,[3],35.9 µM (inactive)
O=c1oc2ccc(Cl)cc2nc1/C=C(\O)c1cccs1,EC50,[4],230 µM (active)
same,EC50,[5],153 µM (active)
same,IC50,[6],2.2 µM (active)
O=C1NCCN1CCN1CCC(c2cn(-c3ccc(F)cc3)c3ccc(Cl)cc23)CC1 [SERTINDOLE],IC50,[7],2.81 µM (active)
same,IC50,[8],2.6 µM (active)
same,IC50,[9],2.16 µM (active)
same,IC50,[10],1.43 µM (active)
same,IC50,[11],3.7 µM (active)
same,IC50,[12],2.86 µM (active)
same,IC50,[13],5.62 µM (inactive)
same,IC50,[14],3.52 µM (active)
C=CCn1c(N)cc(=O)nc1SCC(=O)Nc1ccccc1,EC50,[15],> 50 µM (not active)
CN1CCN(C2=C(Cl)C(=O)N(c3cccc([N+](=O)[O-])c3)C2=O)CC1,IC50,[16],> 100 µM (not active)
same,IC50,Bcl-2-related protein A1 [17],3.94 µM (active)
same,IC50,Bcl-2-related protein A1 [18],6.79 µM (active)
O=C(O)c1cc(C(=O)O)cc(-c2ccc(/C=c3/sc4nc5ccccc5n4c3=O)o2)c1,IC50,[19],22 µM (not active)
same,IC50,[20],34.1 µM (active)
COCC(C)n1c(C)cc(C(=O)Cn2nc(C(=O)O)c3ccccc3c2=O)c1C (configuration not stated),IC50,[6],11.4 µM (not active)

# Reference: ChEMBL document CHEMBL1201862, “PubChem BioAssay data set” (2004)
